24 compounds from patent US8796256B2 (Janssen Pharmaceutica NV, priority 2010, dated 2014) can be followed below.

The target in the experiment is T1, ERR1 (also known as ERR-α or ERR-1) (Homo sapiens, UniProt P11474).
T1 sequence (P11474 193-421 limits assumed): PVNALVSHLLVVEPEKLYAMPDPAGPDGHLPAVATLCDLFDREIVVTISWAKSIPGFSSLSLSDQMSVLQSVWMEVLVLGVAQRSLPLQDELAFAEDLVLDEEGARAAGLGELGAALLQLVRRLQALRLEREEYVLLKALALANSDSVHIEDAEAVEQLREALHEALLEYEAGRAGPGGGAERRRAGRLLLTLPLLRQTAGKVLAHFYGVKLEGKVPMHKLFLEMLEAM
The experiment in a line: TR-FRET assay (disruption of co-activator peptide binding to ERR1 LBD). Format: biochemical. The note with it: 6 nM 6His-ERR1LBD, 6 nM GST-SRC-2 peptide; average of 3 independent experiments. Put shortly:
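Homogeneous TR-FRET measuring displacement of GST-hSRC2 co-activator peptide (6 nM) from His-tagged ERR1 LBD (6 nM), detected with α-GST Eu cryptate (30 nM) and α-His-XL665 (7.5 nM). Buffer 25 mM Tris pH 8, 2.5 mM Hepes, 20 mM KCl, 1 mM DTT, 0.05 mg/mL delipidated BSA; equilibration 4-18 h at 25° C. Hyperbolic dose-response fit, mean of 3 experiments.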
For orientation: Time-resolved FRET reads energy transfer from a long-lived donor to a nearby acceptor.
By EC50 is commonly meant the midpoint of the concentration-response curve. Higher therefore signals lower potency in that assay. Turning to `CC(C)N1C[C@@H](N2C(=O)S/C(=C\c3ccc4c(cnn4Cc4ccc(Cl)cc4C(F)(F)F)c3)C2=O)[C@@H](F)C1` (relative stereo) [Compound 325, (5Z)-5-({1-[4-Chloro-2-(trifluoromethyl)benzyl]-1H-indazol-5-yl}methylidene)-3-[cis-4-fluoro-1-(1-methylethyl)pyrrolidin-3-yl]-1,3-thiazolidine-2,4-dione], the response was half-maximal at 87 nM (EC50).

`O=C1S/C(=C\c2ccc3c(cnn3Cc3ccc(Cl)cc3C(F)(F)F)c2)C(=O)N1C[C@@H]1CCCN1CCO` [Compound 153, (5Z)-5-({1-[4-Chloro-2-(trifluoromethyl)benzyl]-1H-indazol-5-yl}methylidene)-3-{[(2S)-1-(2-hydroxyethyl)pyrrolidin-2-yl]methyl}-1,3-thiazolidine-2,4-dione] showed an EC50 of 17 nM. `CN(CCN1C(=O)S/C(=C\c2ccc3c(cnn3Cc3ccc(Cl)cc3C(F)(F)F)c2)C1=O)S(C)(=O)=O` [Compound 397, N-{2-[(5Z)-5-({1-[4-Chloro-2-(trifluoromethyl)benzyl]-1H-indazol-5-yl}methylidene)-2,4-dioxo-1,3-thiazolidin-3-yl]ethyl}-N-methylmethanesulfonamide] displayed an EC50 of 23 nM. `O=C1S/C(=C\c2ccc3c(cnn3Cc3ccc(Cl)cc3C(F)(F)F)c2)C(=O)N1CCN1CCOCC1` [Compound 3, (5Z)-5-({1-[4-Chloro-2-(trifluoromethyl)benzyl]-1H-indazol-5-yl}methylidene)-3-(2-morpholin-4-ylethyl)-1,3-thiazolidine-2,4-dione] gave an EC50 of 43 nM. Compound `O=C1S/C(=C\c2ccc3c(ccn3Cc3ccc(F)cc3C(F)(F)F)c2)C(=O)N1CCN1CCOCC1` [Compound 249, (5Z)-5-[(1-{[4-Fluoro-2-(trifluoromethyl)phenyl]methyl}-1H-indol-5-yl)methylidene]-3-(2-morpholin-4-ylethyl)-1,3-thiazolidine-2,4-dione] had an EC50 of 350 nM. Consider `O=C1S/C(=C\c2ccc3c(cnn3Cc3ccc(Cl)cc3C(F)(F)F)c2)C(=O)N1CC1COS(=O)(=O)N1` (stereo not drawn) [Compound 409, (5Z)-5-({1-[4-Chloro-2-(trifluoromethyl)benzyl]-1H-indazol-5-yl}methylidene)-3-[(2,2-dioxido-1,2,3-oxathiazolidin-4-yl)methyl]-1,3-thiazolidine-2,4-dione], for which the concentration giving a half-maximal response (EC50) was above 10000 nM. Regarding `Cn1cncc1CN1C(=O)S/C(=C\c2ccc3c(cnn3Cc3ccc(Cl)cc3C(F)(F)F)c2)C1=O` [Compound 139, (5Z)-5-({1-[4-Chloro-2-(trifluoromethyl)benzyl]-1H-indazol-5-yl}methylidene)-3-[(1-methyl-1H-imidazol-5-yl)methyl]-1,3-thiazolidine-2,4-dione], the response was half-maximal at 16 nM (EC50). `NC1(CN2C(=O)S/C(=C\c3ccc4c(cnn4Cc4ccc(Cl)cc4C(F)(F)F)c3)C2=O)CCC1` [Compound 314, (5Z)-3-[(1-Aminocyclobutyl)methyl]-5-({1-[4-chloro-2-(trifluoromethyl)benzyl]-1H-indazol-5-yl}methylidene)-1,3-thiazolidine-2,4-dione] showed a half-maximal effective concentration (EC50) of 830 nM. Compound `CN1CCC[C@H]1CN1C(=O)S/C(=C\c2ccc3c(cnn3Cc3ccc(C(F)(F)F)cc3C(F)(F)F)c2)C1=O` [Compound 69, (5Z)-5-({1-[2,4-Bis(trifluoromethyl)benzyl]-1H-indazol-5-yl}methylidene)-3-{[(2S)-1-methylpyrrolidin-2-yl]methyl}-1,3-thiazolidine-2,4-dione] displayed an EC50 of 23 nM.

Turning to `Cc1nn(Cc2ccc(Cl)cc2C(F)(F)F)c2ccc(/C=C3\SC(=O)N(CC(=O)NS(C)(=O)=O)C3=O)cc12` [Compound 44, 2-[(5Z)-5-({1-[4-Chloro-2-(trifluoromethyl)benzyl]-3-methyl-1H-indazol-5-yl}methylidene)-2,4-dioxo-1,3-thiazolidin-3-yl]-N-(methylsulfonyl)acetamide], a half-maximal response (EC50) required 72 nM. The compound `CCOc1nn(Cc2ccc(Cl)cc2C(F)(F)F)c2ccc(/C=C3\SC(=O)N(CCN4CCCC4)C3=O)cc12` [Compound 33, (5Z)-5-({1-[4-Chloro-2-(trifluoromethyl)benzyl]-3-ethoxy-1H-indazol-5-yl}methylidene)-3-(2-pyrrolidin-1-ylethyl)-1,3-thiazolidine-2,4-dione] showed an EC50 of 185 nM. In turn, `CC(C)(C)OC(=O)COCCN1C(=O)S/C(=C\c2ccc3c(cnn3Cc3ccc(Cl)cc3C(F)(F)F)c2)C1=O` [Compound 236, tert-Butyl {2-[(5Z)-5-({1-[4-chloro-2-(trifluoromethyl)benzyl]-1H-indazol-5-yl}methylidene)-2,4-dioxo-1,3-thiazolidin-3-yl]ethoxy}acetate] showed a 50% effective concentration (EC50) of 111 nM.

In turn, `CN1CCN(CCCN2C(=O)S/C(=C\c3ccc4c(ccn4Cc4ccc(Cl)cc4C(F)(F)F)c3)C2=O)CC1` [Compound 245, (5Z)-5-[(1-{[4-Chloro-2-(trifluoromethyl)phenyl]methyl}-1H-indol-5-yl)methylidene]-3-[3-(4-methylpiperazin-1-yl)propyl]-1,3-thiazolidine-2,4-dione] displayed a concentration giving a half-maximal response (EC50) of 50 nM.

Turning to `CN(C)CCN1C(=O)S/C(=C\c2ccc3c(ccn3Cc3ccc(C#N)cc3C(F)(F)F)c2)C1=O` [Compound 246, 4-({5-[(Z)-{3-[2-(Dimethylamino)ethyl]-2,4-dioxo-1,3-thiazolidin-5-ylidene}methyl]-1H-indol-1-yl}methyl)-3-(trifluoromethyl)benzonitrile], it took 500 nM to reach a half-maximal effect (EC50). Next, `COC(=O)CN1C(=O)S/C(=C\c2ccc3c(cnn3[C@H]3CCc4cc(Cl)ccc43)c2)C1=O` [Compound 171, Methyl [(5Z)-5-({1-[(1S)-5-chloro-2,3-dihydro-1H-inden-1-yl]-1H-indazol-5-yl}methylidene)-2,4-dioxo-1,3-thiazolidin-3-yl]acetate]: 29 nM; `O=C(O)CN1C(=O)S/C(=C\c2cc3cnn(Cc4ccc(Cl)cc4C(F)(F)F)c3cc2F)C1=O` [Compound 348, [(5Z)-5-({1-[4-Chloro-2-(trifluoromethyl)benzyl]-6-fluoro-1H-indazol-5-yl}methylidene)-2,4-dioxo-1,3-thiazolidin-3-yl]acetic acid]: 7 nM; `O=C1S/C(=C\c2ccc3c(cnn3Cc3ccc(Cl)cc3C(F)(F)F)c2)C(=O)N1CCC1CCNCC1` [Compound 164, (5Z)-5-({1-[4-Chloro-2-(trifluoromethyl)benzyl]-1H-indazol-5-yl}methylidene)-3-(2-piperidin-4-ylethyl)-1,3-thiazolidine-2,4-dione]: 47 nM. Compound `O=C1S/C(=C\c2ccc3c(cnn3Cc3ccc(Cl)cc3C(F)(F)F)c2)C(=O)N1C[C@@H]1C[C@H](O)CN1` (stereo in doubt) [Compound 286, (5Z)-5-({1-[4-Chloro-2-(trifluoromethyl)benzyl]-1H-indazol-5-yl}methylidene)-3-{[(2S,4S)-4-hydroxypyrrolidin-2-yl]methyl}-1,3-thiazolidine-2,4-dione] returned an EC50 of 456 nM. Regarding `O=C(O)C(C1CCOCC1)N1C(=O)S/C(=C\c2ccc3c(cnn3Cc3ccc(Cl)cc3C(F)(F)F)c2)C1=O` (stereo not drawn) [Compound 219, [(5Z)-5-({1-[4-Chloro-2-(trifluoromethyl)benzyl]-1H-indazol-5-yl}methylidene)-2,4-dioxo-1,3-thiazolidin-3-yl](tetrahydro-2H-pyran-4-yl)acetic acid], a half-maximal response (EC50) required 42 nM. The result for `C[C@@H](CN1C(=O)S/C(=C\c2ccc3c(cnn3Cc3ccc(Cl)cc3C(F)(F)F)c2)C1=O)NS(C)(=O)=O` [Compound 157, N-{(1S)-2-[(5Z)-5-({1-[4-Chloro-2-(trifluoromethyl)benzyl]-1H-indazol-5-yl}methylidene)-2,4-dioxo-1,3-thiazolidin-3-yl]-1-methylethyl} methanesulfonamide] reads 23 nM; that for `O=C(O)CN1CCC[C@H]1CN1C(=O)S/C(=C\c2ccc3c(cnn3Cc3ccc(Cl)cc3C(F)(F)F)c2)C1=O` [Compound 151, [(2S)-2-{[(5Z)-5-({1-[4-Chloro-2-(trifluoromethyl)benzyl]-1H-indazol-5-yl}methylidene)-2,4-dioxo-1,3-thiazolidin-3-yl]methyl}pyrrolidin-1-yl]acetic acid], 30 nM.

Consider `O=C1S/C(=C\c2ccc3c(cnn3Cc3ccc(C(F)(F)F)cc3C(F)(F)F)c2)C(=O)N1[C@@H]1CCNC[C@H]1F` (relative stereo) [Compound 274, (5Z)-5-({1-[2,4-Bis(trifluoromethyl)benzyl]-1H-indazol-5-yl}methylidene)-3-(trans-3-fluoropiperidin-4-yl)-1,3-thiazolidine-2,4-dione], for which the midpoint of the response, the EC50, lay at 88 nM. For `COc1ccc(Cn2ncc3cc(/C=C4\SC(=O)N(CCN(C)C)C4=O)ccc32)c(C(F)(F)F)c1` [Compound 9, (5Z)-3-[2-(Dimethylamino)ethyl]-5-[(1-{[4-(methyloxy)-2-(trifluoromethyl)phenyl]-methyl}-1H-indazol-5-yl)methylidene]-1,3-thiazolidine-2,4-dione], a half-maximal effect (EC50) was put at 4 nM. Next, `COCCN1C[C@H](F)C[C@H]1CN1C(=O)S/C(=C\c2ccc3c(cnn3Cc3ccc(Cl)cc3C(F)(F)F)c2)C1=O` [Compound 190, (5Z)-5-({1-[4-Chloro-2-(trifluoromethyl)benzyl]-1H-indazol-5-yl}methylidene)-3-{[(2S,4R)-4-fluoro-1-(2-methoxyethyl)pyrrolidin-2-yl]methyl}-1,3-thiazolidine-2,4-dione]: 410 nM.
